Key:
[1] = tested on: CH attacks; conditions: Di Lorenzo et al 2018; cited from earlier work
[2] = tested on: trigeminal autonomic cephalgia (left hemi-cephalgia), person; assay: case report: trigeminal autonomic cephalgia responsive to tricaprylin; type: in vivo, human
Description: A person presented with a history of waxing and waning left hemi-cephalgia over the course of 10 years. Their past medical history included bilateral loss of hearing (right worse than left) and past episodes of dizziness leading to a diagnosis of possible Menieres disease. They had hyperlipedemia controlled with a statin. They had some excess weight (BMI 30.8), was a vegetarian and was physically active.
The cephalgia was described as a dull achy non-throbbing pain that when present is continuous over the left side of the face and across the left scalp. The pain appeared to be centered around the eye and was described as if […] were being poked in the eye. The pain also involved the left cheek and left scalp. They could not identify any specific trigger to the pain but did note that it was accompanied by tenderness to touch of the scalp on the left side of the head, including sensitivity to hair brushing. When the pain was present they would be aware of it upon awakening in the morning and it would persist throughout the day.
They had no other headache types, and had not experienced episodes of nasal stuffiness, or pupillary changes. They noted occasional excess lacrimation of the left eye. At one point they were investigated for potential ‘sinus problems’ and no sinus condition was diagnosed. […] […] self-medicated with occasional paracetamol which provided modest relief.
The subject began a daily treatment regimen with Axona®, a medical food containing the active ingredient tricaprylin.
At the time of presentation the headache had recurred to an intensity of 4-6/10 and they were restarted on a course of Axona®, starting with 5 g tricaprylin per day, increasing over 2 weeks to 20 g a day.

[3] = tested on: participants with frequent migraine; assay: randomised, double-blind, placebo-controlled study of tricaprylin as AC-SD-03 for the reduction of migraine; type: in vivo, human
Description: This is a randomised, double-blind, placebo-controlled, parallel-group, multi-centre study of tricaprylin as AC-SD-03 compared with placebo for the reduction of migraine in participants with frequent migraine.
Following a screening period of up to 2 weeks, the study duration is 17 weeks including a 4-week baseline measurement period, after which randomisation occurs, a 12-week treatment period and a 1-week safety follow-up period.
The study will be completed in two parts. In Part 1, 54 participants will be randomised to receive tricaprylin as AC-SD-03, or placebo, in a 1:1 ratio. Once 54 participants are randomised, enrolment will be paused until the randomised participants have completed the study. Based on an unblinded analysis of the data from all evaluable patients from Part 1, a decision to proceed to Part 2 (enrolment of additional participants) will be taken. The decision to continue to Part 2 will be made by the Sponsor, based on a number of factors including the one-sided p-value for the analysis of the primary endpoint, ΔMDMth3, the safety and tolerability profile observed during Part 1, the observed between-subject variability, as well as trial conduct feasibility. The size of Part 2 will be determined by the between-subject variability observed in Part 1, and will be between 80 and 180 participants.
Investigational Medicinal Products: The formulation AC-SD-03 contains the active compound tricaprylin and excipients, 1:1.5. Thus 75 g AC-SD-03 contains 30 g tricaprylin and 45 g excipients (carrier, emulsifiers and flavouring). The placebo formulation, AC-SD-03P, contains 30 g safflower oil in place of the active compound tricaprylin and identical excipients to the active formulation.
Treatment Groups and Duration: At the Baseline Visit, all participants will receive a sentinel dose of 12.5 g AC-SD-03 (containing 5 g tricaprylin). […] Those that do tolerate the sentinel dose and meet other eligibility criteria, will enter the baseline measurement period of 4 weeks to determine migraine day participant eligibility for the study and to establish baseline data for comparison of endpoints during the study.
After the 4 weeks baseline measurement period, those who record 4-24 migraine days per month will be randomised to AC-SD-03 or placebo (AC-SD-03P) and will titrate from 12.5 g twice a day to 75 g twice a day, over the course of 2 weeks. Participants who have fewer than four or greater than 24 headache days per month in the baseline period will be discontinued from the study. The participant should not be told the number of migraine headache days on which eligibility is based to avoid biased reporting.
Once titration has completed, all participants will continue on the target dose they are on over an additional 10-week maintenance period.
The primary endpoint will be change from baseline in the number of migraine headache days during Month 3 (ΔMDMth3).
The secondary endpoints are: • Change from baseline in the number of migraine headache days during Month 1 (ΔMDMth1) and Month 2 (ΔMDMth2) of treatment and overall, from Months 1-3; • Change from baseline in duration of migraine of moderate to severe intensity during treatment months 1, 2 and 3; • Change from baseline in duration of migraine during treatment months 1, 2 and 3; • The proportion of participants with a 50% reduction from baseline in number of migraine headache days in treatment months 1, 2, and 3; • Change from baseline in monthly acute migraine medicine use during treatment months 1, 2 and 3; • Time to first usage of acute migraine medication; • Change from baseline Headache Impact Test (HIT-6) score at the end of Months 1, 2 and 3; • Incidence of adverse events; • Clinical safety laboratory tests; • Vital signs, ECGs, C-SSRS; […]

[4] = in-vitro digestion assays of emulsion; type: in vitro ADME; conditions: intestinal and/or colon pH vs stomach pH
Description: In certain embodiments, the emulsion formed may be stable at stomach pH, e.g., at a pH of about 1 to about 3, about 1.2 to 2.9, etc. In certain embodiments, the emulsion formed may be stable at intestinal and/or colon pH, e.g., at a pH of about 5 to about 7, about 5.5 to about 6.9, etc. […] In accordance with certain aspects of the disclosure, preferential release of tricaprylin in the intestines and/or colon rather than the stomach may increase bioavailability of the tricaprylin given the location of lipid digestion enzymes in these areas.

## O=C(O)CCCO [GHB]
[1]
  prevention of CH attacks: has been shown to prevent CH attacks

## CN(C)CCC=C1c2ccccc2CCc2ccccc21 [amitriptyline]
[2]; 10 mg, earlier treatment of the same patient
  effect on degree of discomfort: reduced the degree of discomfort partially
[2]; 10 mg, earlier treatment of the same patient, discontinued
  adverse effect: fatigue

## CC(=O)Nc1ccc(O)cc1 [paracetamol]
[2]; occasional self-medication
  relief of cephalgia: modest relief

## CCCCCCCC(=O)OCC(COC(=O)CCCCCCC)OC(=O)CCCCCCC [tricaprylin]
[3]; 12-week treatment, 40 treated
  Discontinued treatment prior to completion, number of subjects: 18
  Discontinued treatment prior to completion, percent of subjects: (45.0%)
  Primary reason for discontinuation: Adverse Event, number of subjects: 12
  Primary reason for discontinuation: Adverse Event, percent of subjects: (30.0%)
[3]; Month 2, vs placebo, one-sided p=0.066 vs target of p<0.2
  Change from baseline in migraine headache days, Month 2: clinically-relevant benefit
[3]; Month 3, EEITS, vs placebo, p=0.269 vs target of p<0.2
  Change from baseline in migraine headache days, Month 3 (primary endpoint): positive, clinically-relevant trend
[4]
  release of encapsulated tricaprylin from emulsion: released from emulsion at intestinal and/or colon pH

Reference: patent US20250127748A1, “METHODS FOR THE TREATMENT OF MIGRAINE AND RELATED HEADACHE SYMPTOMS USING TRICAPRYLIN” (priority 2021, published 2025)
